Results on three molecules are retold here after ChEMBL document CHEMBL5053469, “Heterocyclic GTP Cyclohydrolase 1 Inhibitors For the Treatment of Pain” (2012).

pIC50: −log10 of the molar value.

Test [1] in a line: Inhibition of recombinant rat GCH1 assessed as reduction in 7,8-dihydroneoptrein 3'-triphosphate formation using GTP as substrate incubated for 15 mins by HPLC and fluorescence detection assay.
Test [2] can be described thus: Inhibition of rat aortic smooth muscle cell GCH1 expressed in Escherichia coli assessed as reduction in 7,8-dihydroneoptrein 3'-triphosphate formation using GTP as substrate incubated for 1 hr by LC/MS assay.

For `Nc1nc2[nH]c(S)nc2c(=O)[nH]1`, the pIC50 in test [1] is 4.62. For the molecule `CC1CCCCC1NC(=O)CSc1nc2c(O)nc(N)nc2[nH]1` (stereo not drawn), the pIC50 in test [2] is 4.05. Same read-out and setting: in the case of `Nc1nc(O)c2nc(SCC(=O)Nc3ccc(S(=O)(=O)N4CCCCCC4)cc3)[nH]c2n1` it was 3.90.
